What was measured:
[1] = Absorption coefficient (absorbance of 0.001% solution in tetrahydrofuran); assay type: physicochemical; conditions: for Λ max (absorption maximum wavelength): 0.001% (wt/vol) in tetrahydrofuran, from 280 nm to 400 nm; for Absorption coefficient at 365 nm / Absorption coefficient at Λ max: 0.001% (wt/vol) solution in tetrahydrofuran
Description: A 0.001% (wt/vol) solution of each of the compounds 1, 2, 4, 6, 8, 9, 11, 12, 13, 15, 16, D-1, D-3, D-4, D-7, D-8, D-9, D-12, D-14, D-15, D-20, C-1, and C-2 in tetrahydrofuran was prepared, and its absorbance was measured with a spectrophotometer (manufactured by Hitachi High-Technologies Corporation, trade name: “U-3900H”). An absorption maximum wavelength (Amax) at a wavelength of from 280 nm to 400 nm was read from an absorption spectrum obtained with the spectrophotometer.

[2] = Decomposition point by thermal analysis (TG-DTA); assay type: physicochemical; conditions: 5.0 mg
Description: The compounds 1, 2, 4, 6, 8, 9, 11, 12, 13, 15, 16, D-1, D-3, D-4, D-7, D-8, D-9, D-12, D-14, D-15, D-20, C-1, and C-2 were each subjected to measurement with a thermal analysis apparatus (TG-DTA) (manufactured by Rigaku Corporation, trade name: “Thermo Plus EVO TG 8120”) by using 5.0 mg thereof.

[3] = Evaluation 1: 20-μm pattern line width of transparent photosensitive composition; conditions: for sensitivity to the active energy ray (in words): photopolymerization initiator containing the compound; for 20-μm pattern line width: transparent composition, initiator 0.4 mmol
Description: After that, the mixture was filtered with a membrane filter having an aperture of 5 μm to provide a photosensitive composition.
It should be noted that the fluorene-based compound as a photopolymerization initiator was used in such an amount that its molar quantity was kept constant in the respective examples and comparative examples.
The glass substrate after the application was dried with a fan dryer at 90° C. for 10 minutes. Thus, a coating film (photosensitive layer) was formed. Next, the film was exposed to light having an exposure energy quantity of 5 mJ/cm^2, 10 mJ/cm^2, 20 mJ/cm^2, 40 mJ/cm^2, 60 mJ/cm^2, or 80 mJ/cm^2 by using a high-pressure mercury lamp (manufactured by Karl Suss, trade name: “MASK ALIGNER”) through a negative mask (mask width: 20 μm). Next, the resultant was immersed in a 0.1 wt % aqueous solution of tetramethylammonium hydroxide (TMAH) and then rinsed with pure water. The remaining cured film was subjected to the following evaluation.
(§1) A larger value for the line width means higher sensitivity.

[4] = Average transmittance of composition; assay type: physicochemical; conditions: photosensitive composition, quartz cell, optical path length 1 cm
Description: The average transmittance (%) of each of the photosensitive resin compositions obtained in Examples 1 to 9, Examples 2-1 to 2-10, and Comparative Examples 1 and 2 in the range of from 400 nm to 700 nm was measured with a spectrophotometer (manufactured by Hitachi High-Technologies Corporation, trade name: “U-3900H”, quartz cell, optical path length; 1 cm).

[5] = Transmittance of transparent cured film; assay type: physicochemical; conditions: for Average transmittance (700 nm to 400 nm) Transparent cured film / Transmittance (400 nm) Transparent cured film: cured at exposure energy quantity 80 mJ/cm^2; for transparency of photosensitive composition and formed product (in words): photopolymerization initiator containing the compound
Description: Transparent cured films were formed by using the photosensitive compositions obtained in Examples 1 to 9, Examples 2-1 to 2-10, and Comparative Examples 1 and 2 in the same manner as in the evaluation 1 except that the exposure energy quantity was set to 80 mJ/cm^2. The transmittance (%) of each of the resultant transparent cured films at 400 nm and the average transmittance (%) thereof in the range of from 400 to 700 nm were measured with a spectrophotometer (manufactured by Hitachi High-Technologies Corporation, trade name: “U-3900H”, quartz cell, optical path length; 1 cm). A higher transmittance at 400 nm means less coloring with a yellow color. In addition, a higher transmittance of a coating film means a higher transmitting property of a pattern to be formed.

[6] = Evaluation 3: 20-μm pattern line width of black photosensitive composition; conditions: black composition (carbon black, cardo resin), initiator 0.4 mmol
Description: The mixture was filtered with a membrane filter having an aperture of 5 μm to provide a photosensitive composition.
Photosensitive compositions were each obtained in the same manner as in Example 10 except that the used fluorene-based compound and its usage were changed as shown in Table 5.
Each of the photosensitive compositions obtained in Examples 10 to 15, Examples 2-11 to 2-20, and Comparative Example 3 was applied onto a glass substrate with a spin coater (manufactured by Kyowariken Co., Ltd., trade name: “K-359SD1”) so that its thickness after drying became 1.0 μm. The glass substrate after the application was dried with a fan dryer at 90° C. for 10 minutes. Thus, a coating film (photosensitive layer) was formed. Next, the film was exposed to light having an exposure energy quantity of 10 mJ/cm^2, 20 mJ/cm^2, 40 mJ/cm^2, 60 mJ/cm^2, or 80 mJ/cm^2 by using a high-pressure mercury lamp (manufactured by Karl Suss, trade name: “MASK ALIGNER”) through a negative mask (mask width: 20 μm). Next, the resultant was immersed in a 0.1 wt % aqueous solution of tetra methyl ammonium hydroxide (TMAH) and then rinsed with pure water. The remaining cured film was subjected to the following evaluation. In addition, FIGS. 2, 3, and 6 show microscope photographs of black cured films obtained by using the photosensitive compositions of Examples 10 and 11, and Comparative Example 3, and FIGS. 7 to 11 show microscope photographs of black cured films obtained by using the photosensitive compositions of Examples 2-11, 2-13, 2-14, 2-17, and 2-18.
as §1

[7] = exposure energy quantity 10 mJ/cm^2
[8] = exposure energy quantity 20 mJ/cm^2
[9] = exposure energy quantity 40 mJ/cm^2
[10] = exposure energy quantity 60 mJ/cm^2
[11] = exposure energy quantity 80 mJ/cm^2
[12] = exposure energy quantity 5 mJ/cm^2

Row | Structure (SMILES) | Λ max (absorption maximum wavelength) [1] [nm] | Absorption coefficient at 365 nm [1] [mL/mg/cm] | Absorption coefficient at Λ max [1] [mL/mg/cm] | Decomposition point [2] [°C] | sensitivity to the active energy ray (in words) [3] | 20-μm pattern line width [3, 7] | 20-μm pattern line width [3, 8] | 20-μm pattern line width [3, 9] | 20-μm pattern line width [3, 10] | 20-μm pattern line width [3, 11] | Average transmittance (700 nm to 400 nm) Solution [4] [%] | Average transmittance (700 nm to 400 nm) Transparent cured film [5] [%] | Transmittance (400 nm) Transparent cured film [5] [%] | transparency of photosensitive composition and formed product (in words) [5] | 20-μm pattern line width ([6]; 10 mJ/cm^2) | 20-μm pattern line width ([6]; 20 mJ/cm^2) | 20-μm pattern line width ([6]; 40 mJ/cm^2) | 20-μm pattern line width ([6]; 60 mJ/cm^2) | 20-μm pattern line width ([6]; 80 mJ/cm^2) | 20-μm pattern line width [3, 12]
1 | CCCCCCC1(CCCCCC)c2cc(C(=O)c3cccs3)ccc2-c2ccc(C(CC(C)N(OC(C)=O)C(C)=O)=NOC(C)=O)cc21 (racemic) [Compound 11] | 333.5 | 6.6 | 55.0 | 257.3 | additionally high sensitivity to the active energy ray | 19.9 | 20.5 | 21.9 | 22.5 | 22.8 | 93.0 | 100.0 | 99.1 | additionally excellent transparency |  |  |  |  |  | 
2 | CCCCCCC1(CCCCCC)c2cc(C(=O)c3ccc([N+](=O)[O-])cc3)ccc2-c2ccc(C(CC(C)N(OC(C)=O)C(C)=O)=NOC(C)=O)cc21 (racemic) [Compound 12] | 335.5 | 11.8 | 43.0 | 195.2 |  | 19.8 | 20.0 | 21.0 | 21.2 | 21.5 | 77.8 | 99.8 | 99.7 |  |  |  |  |  |  | 
3 | CCCCCCC1(CCCCCC)c2cc(C(=O)c3ccc(F)cc3)ccc2-c2ccc(/C(CC(C)N(OC(C)=O)C(C)=O)=N\OC(C)=O)cc21 (stereo not shown) [Compound 9] | 330.0 | 3.0 | 54.0 | 192.7 |  | 19.9 | 20.5 | 21.3 | 22.2 | 22.8 | 94.0 | 100.0 | 99.4 | additionally excellent transparency | 19.9 | 20.5 | 21.3 | 22.2 | 22.8 | 
4 | CCCCCCC1(CCCCCC)c2cc(C(=O)C(=NOC(C)=O)c3cc(C)ccc3C)ccc2-c2ccc(C(=O)c3ccc([N+](=O)[O-])cc3)cc21 [Compound 13] | 338.5 | 9.2 | 36.3 | 167.1 |  | 19.4 | 19.6 | 19.8 | 20.6 | 21.0 | 79.2 | 99.4 | 97.0 |  |  |  |  |  |  | 
5 | CCCC1(CCC)c2cc(C(CCCSc3ccc(Cl)cc3)=NOC(C)=O)ccc2-c2ccc([N+](=O)[O-])cc21 [Compound D-14] | 345.5 | 36.3 | 53.9 | 186.9 | additionally high sensitivity to the active energy ray | 20.6 | 21.7 | 22.8 |  | 23.2 | 65.1 | 99.5 | 92.7 |  | 19.9 | 20.6 | 21.7 | 22.8 | 23.2 | 19.9
6 | CCCC1(CCC)c2cc(C(=O)C(CCSc3ccc(Cl)cc3)=NOC(C)=O)ccc2-c2ccc([N+](=O)[O-])cc21 [Compound D-15] | 346.0 | 36.7 | 52.6 | 202.1 |  | 19.9 | 20.7 | 21.4 |  | 22.3 | 86.2 | 99.1 | 91.9 |  | 19.5 | 19.9 | 20.7 | 21.4 | 22.3 | 19.5

— patent publication US9684238B2, “Fluorene-type compound, photopolymerization initiator comprising said fluorene-type compound, and photosensitive composition containing said photopolymerization initiator” (TOKYO OHKA KOGYO CO., LTD., priority 2012, dated 2017)
